Source: patent publication US20260219274A1, “POLYOL SWEETNERS AND CARDIOVASCULAR AND THROMBOTIC EVENT RISK” (THE CLEVELAND CLINIC FOUNDATION, priority 2023, published 2026)

Experiments:
[1] = system: stable subjects undergoing elective diagnostic cardiac evaluations (Discovery Cohort); details: in vivo
Text: Our first study employed a Discovery Cohort, where we used untargeted metabolomics (semi-quantitative analyses) to analyze plasma samples from 1,157 stable subjects to identify circulating analytes whose levels were associated with future development of adverse cardiovascular events over an ensuing 3 year period. The Discovery Cohort included sequential stable patients (ages 18 years or above) undergoing elective diagnostic coronary angiography for risk evaluation at a quaternary referral center between 2001 and 2007 (GeneBank at the Cleveland Clinic; clinicaltrials.gov identifier: NCT00590200) with clinical and longitudinal outcomes.
(§1) In both, the Discovery and Validation Cohorts, Major Adverse Cardiovascular Events (MACE) were defined as death, nonfatal myocardial infarction, or nonfatal cerebrovascular accident (stroke) during follow-up. Adjudicated long term survival data were collected through medical records review and Social Security Death Index query. Cardiovascular disease (CVD) was indicated as presence of peripheral artery disease or coronary artery disease, indicated as any clinical history of myocardial infarction, coronary revascularization (including percutaneous coronary intervention, coronary artery bypass surgery), or angiographic evidence of significant stenosis (≥50%) in 1 or more major coronary arteries. Estimated glomerular filtration rate (eGFR) in both cohorts was calculated based on the recent Chronic Kidney Disease Epidemiology Collaboration 2021 CKD-EPI Creatinine equation.^37 Platelet-related hematology analyses were performed with an Advia 120 hematology analyzer (Siemens, New York, NY).^38 Use of anti-platelet agents (=1556) was defined as either aspirin or a P2Y12 agent or both. All observational studies in this example are reported in compliance with the STrengthening the Reporting of Observational studies in Epidemiology (STROBE)-Statement.^39 Information on gender of study participants of the Discovery and Validation Cohorts is reported in Table 1-3.
For untargeted mass spectrometry analyses, subject plasma samples were derivatized and run on GC-MS analyses as previously described.^19 Raw data files were processed using the metabolomics BinBase database.^45
Continuous variables are summarized as median (interquartile range [IQR]), and categorical variables are presented as %. Difference between groups (e.g. tertiles or quartiles) were examined using Kruskal Wallis test for continuous variables and chisq (χ^2) test for categorical variables. Kaplan-Meier analysis with Cox proportional-hazards regression was used for time-to-event analysis to determine hazard ratios (HR) and 95% confidence intervals (CI) for incident MACE. Adjustments included traditional cardiovascular risk factors (age, sex, diabetes mellitus, systolic blood pressure, low-density lipoprotein cholesterol levels, high-density lipoprotein cholesterol levels, triglyceride levels, smoking status) and high-sensitivity C-reactive protein (hsCRP). We confirmed that the proportionality hazards assumptions were met using the Schoenfeld residuals against the transformed time. Mann-Whitney U-test or Wilcoxon matched-pairs signed rank test were applied to continuous variables to examine differences between 2 groups. Kruskal-Wallis test with Dunn's post hoc test was used for pairwise multiple comparisons of ranked data. Two-way ANOVA with Šidák's multiple comparison post hoc test was used for multiple-group comparisons of aggregometry responses using different concentrations of agonists. For analysis of collagen-dependent platelet adhesion in whole blood, a two-way repeated measures ANOVA with Sidák's multiple comparison post hoc test was used. All reported measurements represent distinct samples. Data analyses were performed with R software (version 4.0.2) and GraphPad Prism software (version 9.1.2). A two-sided P<0.05 was considered statistically significant. […]

[2] = system: stable subjects undergoing elective diagnostic cardiac evaluation (Validation / US cohort); parameters: species or system human; details: in vivo
Text: Our second clinical study employed an independent non-overlapping Validation Cohort, where we employed quantitative stable isotope dilution liquid chromatography tandem mass spectrometry (LC-MS/MS) to determine xylitol levels in serum samples from 2,149 patients (non-overlapping from GeneBank at the Cleveland Clinic; clinicaltrials.gov identifier: NCT0059020).^35-36
as §1
Stable-isotope-dilution LC-MS/MS was developed to specifically quantify xylitol in human and mouse plasma, urine and feces (fecal pellets were dissolved in water and supernatant subjected to LC-MS/MS). Accuracy and precision of the method to quantify xylitol (separated from its structural isomers arabitol and rabitol) were assessed by a standard addition method 4 of pure synthetic standard into three different plasma pools. Accuracy was 2.4-2.8%, and intra- and inter-day coefficients of variation (CVs), were 1.2-8.9% and 10.9-11.5%, respectively. Urine creatinine was similarly analyzed by stable-isotope-dilution LC-MS/MS using D3-creatinine as internal standard as previously described.^47 Erythritol was quantified by stable-isotope-dilution LC-MS/MS as previously described.^19 Details for all assays can be found in the additional methods.
Continuous variables are summarized as median (interquartile range [IQR]), and categorical variables are presented as %. […]

| Compound | HR for MACE [1] | HR with 95% CI [1] | adjusted HR for incident MACE [1] | HR [95% CI] incident event risk [2] | HR with 95% CI [2] | adjusted HR [95% CI] incident MACE [2] | adjusted HR [95% CI] for incident (3 year) MACE [1] | hazard ratio (HR) [95% CI] for incident (3 year) MACE [1] | HR [95% CI] for incident (3 year) MACE [2] |
| --- | --- | --- | --- | --- | --- | --- | --- | --- | --- |
| OC[C@@H](O)[C@@H](O)CO [erythritol] | 3.22 [95% CI 1.91-5.41] | 1.31 (1.17-1.46) | 2.95 [1.70-5.12] | 2.64 [1.79-3.90] | 1.21 (1.12-1.31) | 1.80 [1.18-2.77] |  |  |  |
| OC[C@@H](O)[C@H](O)[C@@H](O)CO [xylitol] |  |  |  |  |  |  | 1.64 [1.05-2.56] | 1.63 [1.04-2.53] | 2.31 [1.52-3.52] |
